Test results: patent US11458180B2, “Environmentally-friendly preparation method of composition containing anti-inflammatory active ingredients and use of composition” (SHANGHAI JAKA BIOTECH CO., LTD., priority 2019, dated 2022)

Test system: PGE-2
Assay: Anti-inflammatory effect: LPS-induced PGE-2 expression by ELISA
Format: cell-based, mouse
Conditions: LPS 1 μg/ml stimulated Raw 264.7 cells, 10 μM, relative to LPS group
Procedure: In this experiment, Raw 264.7 cells were stimulated by LPS, then cell culture was collected, and the expression of the inflammatory factor PGE-2 was determined by enzyme-linked immunosorbent assay (ELISA). The compositions obtained in the examples and comparative examples were compared in terms of the influence on anti-inflammatory effects. Raw264.7 cells and LPS were used for the experiment.
Raw264.7 cells at logarithmic growth phase were collected as follows: culture medium was discarded, and the cells were washed twice with PBS, added with 0.25% trypsin, and placed at 37° C. for 5 min; digestion was terminated with DMEM complete culture medium including 10% FBS and 1% PS, and a resulting solution was centrifuged at 1,000 rpm for 3 min; and a resulting supernatant was discarded, and obtained cells were resuspended in complete culture medium and counted. A cell concentration was adjusted to 5×10^5 cells/ml, and a resulting cell suspension was added to a 96-well plate at 100 µl/well. […]
After the treatment, cell culture was collected to a new 96-well plate, and the expression of PGE-2 was determined by ELISA according to instructions of a kit. A PGE-2 content (E) was calculated according to a standard curve, and relative to the LPS group, a relative inhibition rate was calculated for each sample (inhibition rate (%)=(1-Etest substance group/ELPS group)×100).

C[C@@H]1C[C@H]2[C@@H]3CCC4=CC(=O)C=C[C@]4(C)[C@@]3(F)[C@@H](O)C[C@]2(C)[C@@]1(O)C(=O)CO [Dex, dexamethasone]
inhibition rate of PGE-2 expression: 75.27%
